The source of these data is patent US20230295106A1 (priority 2019, published 2023).

For test [1], the target named is T1, 5-HT2C edited (accession number AAF35842.1) (Homo sapiens, UniProt P28335, I156V/I160V/N158S). In words: biochemical. As to conditions: 5-HT2C Radioligand Binding Activity.
Target sequence in this assay (P28335 33-458 I156V/N158S/I160V limits assumed): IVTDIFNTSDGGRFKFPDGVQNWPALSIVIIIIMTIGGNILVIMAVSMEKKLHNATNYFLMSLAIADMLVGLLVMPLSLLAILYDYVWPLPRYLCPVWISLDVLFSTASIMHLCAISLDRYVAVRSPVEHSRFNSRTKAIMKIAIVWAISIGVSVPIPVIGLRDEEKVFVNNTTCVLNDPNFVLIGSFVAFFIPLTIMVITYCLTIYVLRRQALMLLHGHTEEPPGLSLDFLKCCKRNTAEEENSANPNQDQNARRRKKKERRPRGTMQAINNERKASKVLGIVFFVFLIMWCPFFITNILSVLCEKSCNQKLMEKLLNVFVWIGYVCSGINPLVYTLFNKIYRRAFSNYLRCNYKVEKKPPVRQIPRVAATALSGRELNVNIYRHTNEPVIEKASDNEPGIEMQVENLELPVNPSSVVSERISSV
The target in test [2] is T1, 5-HT2C edited (accession number AAF35842.1). In words: cell-based. As to conditions: 5-HT2C IPOne Agonism Activity.
Target sequence in this assay (P28335 whole entry I156V/N158S/I160V, looked up): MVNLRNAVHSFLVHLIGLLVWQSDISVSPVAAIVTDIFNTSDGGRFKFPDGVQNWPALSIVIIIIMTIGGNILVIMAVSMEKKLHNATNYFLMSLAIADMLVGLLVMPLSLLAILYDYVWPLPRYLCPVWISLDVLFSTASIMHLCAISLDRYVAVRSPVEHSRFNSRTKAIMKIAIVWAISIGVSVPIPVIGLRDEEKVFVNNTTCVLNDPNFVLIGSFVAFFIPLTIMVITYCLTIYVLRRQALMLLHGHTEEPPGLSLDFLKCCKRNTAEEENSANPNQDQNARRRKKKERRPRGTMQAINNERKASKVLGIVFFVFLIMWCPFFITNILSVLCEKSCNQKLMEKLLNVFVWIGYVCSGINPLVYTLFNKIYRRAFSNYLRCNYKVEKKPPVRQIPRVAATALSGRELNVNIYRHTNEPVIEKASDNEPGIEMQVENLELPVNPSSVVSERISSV
The target in test [3] is human recombinant 5-HT2C edited receptor (accession number AAF35842.1) (Homo sapiens, UniProt P28335, I156V/N158S/I160V). In words: cell-based. As to conditions: read-out: 5-HT2C IPOne Agonism Activity.
Chain of human recombinant 5-HT2C edited receptor (accession number AAF35842.1) (P28335 whole entry I156V/N158S/I160V, looked up): as above

The IC50 is the concentration that gives 50% inhibition.

`CCN(CC)C(=O)[C@@H]1C=C(c2cc(OC)cc(OC)c2)CN(C)C1` (single isomer, unassigned) [Compound 5, 5-(3,5-dimethoxyphenyl)-N,N-diethyl-1-methyl-1,2,3,6-tetrahydropyridine-3-carboxamide]: the 50% inhibitory concentration (IC50) in test [1] lay in the range of 101 to 1000 nM. This compound yielded an EC50 in test [2] of 101 to 1000 nM.

With `CCN(CC)C(=O)[C@@H]1C=C(c2cc(OC)cc(OC)c2)CN(C)C1` (single isomer, unassigned) [Compound 6, 5-(3,5-dimethoxyphenyl)-N,N-diethyl-1-methyl-1,2,3,6-tetrahydropyridine-3-carboxamide], in test [1], the IC50 lay within 1000 to 10000 nM. In addition, the EC50 in test [2] was 1000 to 10000 nM.

Consider `CCN(CC)C(=O)[C@@H]1C=C(c2ccccc2OC)CN(C)C1` (single isomer, unassigned) [Compound 7, N,N-diethyl-5-(2-methoxyphenyl)-1-methyl-1,2,3,6-tetrahydropyridine-3-carboxamide], for which the 50% inhibitory concentration (IC50) in test [1] was 101 to 1000 nM. For the same compound, in test [2], the EC50 lay within 101 to 1000 nM.

As to `CCN(CC)C(=O)[C@@H]1C=C(c2ccccc2OC)CN(C)C1` (single isomer, unassigned) [Compound 8, N,N-diethyl-5-(2-methoxyphenyl)-1-methyl-1,2,3,6-tetrahydropyridine-3-carboxamide], in test [1], the IC50 was in the range of 1000 to 10000 nM. Further, the EC50 in test [2] was 1000 to 10000 nM.

`CCN(CC)C(=O)[C@@H]1C=C(c2cccc(OC)c2)CN(C)C1` (single isomer, unassigned) [Compound 9, N,N-diethyl-5-(3-methoxyphenyl)-1-methyl-1,2,3,6-tetrahydropyridine-3-carboxamide] showed an IC50 in test [1] of 10 to 100 nM. This compound also returned an EC50 in test [2] of 10 to 100 nM.

As to `CCN(CC)C(=O)[C@@H]1C=C(c2cccc(OC)c2)CN(C)C1` (single isomer, unassigned) [Compound 10, N,N-diethyl-5-(3-methoxyphenyl)-1-methyl-1,2,3,6-tetrahydropyridine-3-carboxamide], the half-inhibitory concentration (IC50) in test [1] is 101 to 1000 nM. In test [2], the EC50 fell in the range of 101 to 1000 nM.

In the case of `CN(C)C1Cc2cccc3ccn(c23)C1` (single isomer, unassigned) [Compound 14, N,N-dimethyl-5,6-dihydro-4H-pyrrolo[3,2,1-ij]quinolin-5-amine], the half-inhibitory concentration (IC50) in test [1] was 10 to 100 nM. This compound yielded an EC50 in test [2] of 101 to 1000 nM.

As to `CN(C)C1Cc2cccc3ccn(c23)C1` (single isomer, unassigned) [Compound 15, N,N-dimethyl-5,6-dihydro-4H-pyrrolo[3,2,1-ij]quinolin-5-amine], the 50% inhibitory concentration (IC50) in test [1] was 101 to 1000 nM. The EC50 in test [3] was 101 to 1000 nM.

In the case of `NC1Cc2cccc3ccn(c23)C1` (centres unmarked) [Compound 13, 5,6-dihydro-4H-pyrrolo[3,2,1-ij]quinolin-5-amine], in test [1], the IC50 is 101 to 1000 nM. The compound also yielded an EC50 in test [2] of 101 to 1000 nM.

`CCN(CC)C1Cc2cccc3ccn(c23)C1` (centres unmarked) [Compound 16, N,N-diethyl-5,6-dihydro-4H-pyrrolo[3,2,1-]quinolin-5-amine] showed an IC50 in test [1] of 101 to 1000 nM. Further, in test [2], the EC50 was 101 to 1000 nM.

`NC1Cc2cc(F)cc3ccn(c23)C1` (centres unmarked) [Compound 17, 8-fluoro-5,6-dihydro-4H-pyrrolo[3,2,1-ij]quinolin-5-amine] returned an IC50 in test [1] of 101 to 1000 nM. The compound also yielded an EC50 in test [2] of 101 to 1000 nM.

With `NC1Cc2c(F)ccc3ccn(c23)C1` (centres unmarked) [Compound 19, 7-fluoro-5,6-dihydro-4H-pyrrolo[3,2,1-ij]quinolin-5-amine], the 50% inhibitory concentration (IC50) in test [1] lay in the range of 101 to 1000 nM. Also, the EC50 in test [2] was 101 to 1000 nM.

In test [1], `NC1Cc2cc(Cl)cc3ccn(c23)C1` (centres unmarked) [Compound 21, 8-chloro-5,6-dihydro-4H-pyrrolo[3,2,1-ij]quinolin-5-amine] displayed a half-inhibitory concentration (IC50) of 101 to 1000 nM. In test [2], this compound returned an EC50 of 101 to 1000 nM.

Take `NC1Cc2c(Cl)ccc3ccn(c23)C1` (centres unmarked) [Compound 23, 7-chloro-5,6-dihydro-4H-pyrrolo[3,2,1-ij]quinolin-5-amine]: in test [1], the concentration for half-maximal inhibition (IC50) fell in the range of 101 to 1000 nM. This compound also came in with an EC50 in test [2] of 101 to 1000 nM.

In turn, `COc1cc2c3c(ccn3CC(N)C2)c1` (centres unmarked) [Compound 25, 8-methoxy-5,6-dihydro-4H-pyrrolo[3,2,1-ij]quinolin-5-amine] had an IC50 in test [1] of 1000 to 10000 nM. Besides, the EC50 in test [2] lay in the range of 1000 to 10000 nM.

In turn, `NC1Cc2cccc3[nH]cc(c23)C1` (centres unmarked) [Compound 27, 1,3,4,5-tetrahydrobenzo[cd]indol-4-amine] yielded a 50% inhibitory concentration (IC50) in test [1] of 101 to 1000 nM. This compound also yielded an EC50 in test [2] of 101 to 1000 nM.
